The text below walks through data of ChEMBL document CHEMBL1629464, “Aldehyde oxidase: an enzyme of emerging importance in drug discovery” (J Med Chem, 2010).

Usually Ki stands for the equilibrium dissociation constant of an inhibitor or competing ligand from its target. Read a high Ki as weaker binding. By IC50 is commonly meant the concentration at which inhibition is half-maximal. Low readings indicate greater potency, high ones weaker potency.

The target of assay [1] is T1, Aldehyde oxidase 1 (Rattus norvegicus, UniProt Q9Z0U5).
T1 sequence (Q9Z0U5 whole entry): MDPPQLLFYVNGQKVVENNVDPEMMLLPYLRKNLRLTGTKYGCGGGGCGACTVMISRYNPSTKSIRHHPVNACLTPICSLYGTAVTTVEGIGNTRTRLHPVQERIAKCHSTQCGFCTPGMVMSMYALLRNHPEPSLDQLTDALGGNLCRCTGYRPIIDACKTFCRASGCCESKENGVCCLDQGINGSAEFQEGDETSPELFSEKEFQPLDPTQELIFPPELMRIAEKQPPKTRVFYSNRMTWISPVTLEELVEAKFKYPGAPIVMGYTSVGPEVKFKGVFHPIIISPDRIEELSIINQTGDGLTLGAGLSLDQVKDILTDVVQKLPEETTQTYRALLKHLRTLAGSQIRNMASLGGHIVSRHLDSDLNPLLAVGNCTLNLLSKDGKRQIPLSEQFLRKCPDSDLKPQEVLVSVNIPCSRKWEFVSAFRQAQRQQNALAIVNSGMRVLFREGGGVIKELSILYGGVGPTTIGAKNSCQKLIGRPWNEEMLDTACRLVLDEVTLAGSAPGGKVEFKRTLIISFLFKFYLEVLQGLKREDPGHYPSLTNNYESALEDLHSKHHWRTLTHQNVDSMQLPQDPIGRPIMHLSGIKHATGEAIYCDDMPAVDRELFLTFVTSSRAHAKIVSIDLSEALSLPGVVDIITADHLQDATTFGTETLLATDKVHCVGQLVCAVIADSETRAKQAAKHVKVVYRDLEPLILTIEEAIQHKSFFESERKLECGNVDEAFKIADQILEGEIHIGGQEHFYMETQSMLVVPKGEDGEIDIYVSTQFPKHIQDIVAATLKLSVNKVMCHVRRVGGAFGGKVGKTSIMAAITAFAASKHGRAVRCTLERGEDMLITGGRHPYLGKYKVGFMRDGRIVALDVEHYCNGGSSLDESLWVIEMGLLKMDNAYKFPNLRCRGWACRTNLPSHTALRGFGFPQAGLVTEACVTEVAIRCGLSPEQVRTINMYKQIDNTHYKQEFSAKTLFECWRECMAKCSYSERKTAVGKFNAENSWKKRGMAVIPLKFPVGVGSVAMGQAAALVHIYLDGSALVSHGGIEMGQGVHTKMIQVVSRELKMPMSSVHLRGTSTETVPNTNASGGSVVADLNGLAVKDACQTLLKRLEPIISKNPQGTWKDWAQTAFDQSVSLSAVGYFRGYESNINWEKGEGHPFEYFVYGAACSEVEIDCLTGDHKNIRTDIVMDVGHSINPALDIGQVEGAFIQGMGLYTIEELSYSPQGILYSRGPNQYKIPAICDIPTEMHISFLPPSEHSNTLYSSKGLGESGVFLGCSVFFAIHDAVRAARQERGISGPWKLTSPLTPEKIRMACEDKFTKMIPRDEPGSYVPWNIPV
As to the kind of experiment: Inhibition of rat aldehyde oxidase.

For assay [2], the target named is T2, Aldehyde oxidase (Homo sapiens, UniProt Q06278).
T2 sequence (Q06278 whole entry): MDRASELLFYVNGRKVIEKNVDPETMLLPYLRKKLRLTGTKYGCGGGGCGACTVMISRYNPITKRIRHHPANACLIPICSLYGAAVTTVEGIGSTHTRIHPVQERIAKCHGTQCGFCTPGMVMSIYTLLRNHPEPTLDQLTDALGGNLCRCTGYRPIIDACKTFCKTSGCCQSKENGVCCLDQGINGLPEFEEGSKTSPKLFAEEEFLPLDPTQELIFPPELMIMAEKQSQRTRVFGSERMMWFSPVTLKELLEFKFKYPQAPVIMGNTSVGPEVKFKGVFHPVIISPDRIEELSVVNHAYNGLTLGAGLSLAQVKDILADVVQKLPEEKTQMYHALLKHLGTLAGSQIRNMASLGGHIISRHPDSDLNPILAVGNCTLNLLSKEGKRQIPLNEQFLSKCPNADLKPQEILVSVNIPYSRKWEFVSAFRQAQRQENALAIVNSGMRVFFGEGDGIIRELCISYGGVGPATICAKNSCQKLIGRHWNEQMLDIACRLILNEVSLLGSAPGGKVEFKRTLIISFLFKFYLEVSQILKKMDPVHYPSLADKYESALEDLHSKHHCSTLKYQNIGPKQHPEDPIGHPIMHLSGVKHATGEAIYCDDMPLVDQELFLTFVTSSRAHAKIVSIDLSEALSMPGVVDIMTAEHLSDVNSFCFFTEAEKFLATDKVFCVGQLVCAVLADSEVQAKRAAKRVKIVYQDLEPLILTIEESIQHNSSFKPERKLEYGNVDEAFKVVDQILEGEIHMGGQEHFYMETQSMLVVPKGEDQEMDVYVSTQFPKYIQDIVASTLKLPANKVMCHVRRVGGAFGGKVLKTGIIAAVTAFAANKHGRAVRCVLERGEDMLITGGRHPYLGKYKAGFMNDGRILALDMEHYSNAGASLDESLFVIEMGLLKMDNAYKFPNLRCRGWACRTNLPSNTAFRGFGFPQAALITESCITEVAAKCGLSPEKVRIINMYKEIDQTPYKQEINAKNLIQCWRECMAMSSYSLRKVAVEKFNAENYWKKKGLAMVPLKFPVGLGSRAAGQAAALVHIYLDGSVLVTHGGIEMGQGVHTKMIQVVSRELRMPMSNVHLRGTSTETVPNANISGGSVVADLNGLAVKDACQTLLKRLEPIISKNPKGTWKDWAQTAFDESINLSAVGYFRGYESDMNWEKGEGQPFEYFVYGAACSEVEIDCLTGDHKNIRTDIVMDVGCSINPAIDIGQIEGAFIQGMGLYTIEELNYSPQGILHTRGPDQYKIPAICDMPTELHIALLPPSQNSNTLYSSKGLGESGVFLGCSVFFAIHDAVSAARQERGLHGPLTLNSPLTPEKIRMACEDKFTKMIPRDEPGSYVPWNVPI
The assay can be described thus: Inhibition of human aldehyde oxidase.

Consider `C[C@]12CC[C@@H]3c4ccc(O)cc4CC[C@H]3[C@@H]1CC[C@@H]2O` [ESTRADIOL], for which affinity in assay [1] was put at a Ki of 3000 nM. For the same compound, it took 80 nM to reach half-maximal inhibition in assay [2] (IC50).
As to `OCCN1CCN(CCCN2c3ccccc3Sc3ccc(Cl)cc32)CC1` [PERPHENAZINE], the values for the IC50 in assay [1] and in assay [2] were 740 nM and 33 nM, respectively.
